Assay type in all cases: cell-based
Data set [1] deals with Cisplatin resistant cell lines. The experiment in a line: Mean IC50 (MTT assay) on Cisplatin resistant cell lines. On the procedure:
(§1) Thus, it can be concluded that the biological activity is mediated by a longer chain (butoxy) at the meta-position, whereas the ortho- and para-positions are more suitable with a shorter chain (ethoxy). To have a further look at the influence of the different ligand systems and substitution patterns, all β-Hydroxydithiocinnamic acid alkyl esters were tested under same conditions as their derived ruthenium(II) complexes (Figure 5B, Supplementary Table S3). […] All ligands are less cytotoxic than Cisplatin itself and therefore the metal(II) center is necessary for the high cytotoxic activity, what is in clear contrast to the literature for O,S-chelating ruthenium(II) or osmium(II) compounds with thiomaltol ligand [48, 71] but confirmed for Ru(II)/Os(II) compounds with N,N-bidentate glycosyl heterocyclic ligands. This is exemplarily shown by the comparison of mean IC50 values for Cisplatin, L14, and Ru14 (Supplementary Figure S8).
Ovarian cancer cell lines were cultured under standard conditions (5% CO2, 37 °C, 90% humidity) in RPMI medium supplemented with 10% FCS, 100 U/mL penicillin and 100 µg/mL streptomycin (Life Technologies, Dreieich, Germany). Cisplatin (Sigma, Taufkirchen, Germany) was freshly dissolved at 1 mg/mL in 0.9% NaCl solution and diluted appropriately. New ruthenium(II) complexes and ligands were dissolved in dmso. Platinum-resistant A2780 and SKOV3 cells were established by repeated rounds of 3-day incubations with increasing amounts of Cisplatin starting with 0.1 µM. The concentration was doubled after 3 incubations, interrupted by recovery phases with normal medium. […] Determinations of IC50 values were carried out using the CellTiter96 non-radioactive proliferation assay (MTT assay, Promega, Mannheim, Germany). After seeding 5000 cells per well in a 96-well plate, cells were allowed to attach for 24 h and were incubated for 48 h with different concentrations of the substances ranging from 0 to 500 µM for Ruthenium and 0 to 1000 µM for ligand tests (0, 1, 10, 50, 100, 500, 1000 µm), for Cisplatin from 0 to 100 µM (0.1, 1, 5, 10, 50, 100 µM). Each measurement was done in triplicate and repeated 3 times. The proportion of viable cells was quantified by the MTT assay and after background subtraction relative values compared to the mean of medium controls were calculated. Non-linear regression analyses applying the Hill slope were run in GraphPad 5.0 software.

For data set [2], the system named is A2780. The experiment in a line: MTT assay (CellTiter96), cytotoxic activity. Conditions: 48 h incubation. (Tetrazolium assays rely on reduction of a dye to a coloured formazan, in cell work by metabolically active cells.)
Data set [3] deals with SKOV3cis. The experiment in a line: MTT assay (CellTiter96), cytotoxic activity.
Data set [4] deals with A2780cis. Briefly: MTT assay (CellTiter96), cytotoxic activity.
Data set [5] has as its system A549. The experiment in a line: MTT assay (CellTiter96), cytotoxic activity. Conditions: lung carcinoma cell line, 48 h incubation.
The test system of data set [6] is SKOV3. Briefly: MTT assay (CellTiter96), cytotoxic activity. To be noted: 48 h incubation.
Data set [7] deals with histone γH2AX-foci. The experiment in a line: γH2AX foci analysis (DNA damage). To be noted: IC50 concentration, 24h incubation. The source says:
ROS production may also lead to endoplasmatic reticulum stress-induced apoptosis. In general, many ruthenium(II) complexes with different ligands induce intracellular ROS [94, 95, 96, 97, 98, 99]. Moreover, the cytotoxic activity of Os(II) compounds can be inhibited by vitamin E co-treatment pointing to the contribution of ROS [88]. In addition to mitochondrial dysfunction, Ru(II) complexes may affect glycolysis or topoisomerase I/II, thus inducing necroptosis. Ru(II) compounds with modified pyrithione ligands were recently described to overcome platinum resistance in ovarian cancer cells by inducing cytostatic G1 arrest, TrxR inhibition, and cell membrane damage. […] Future studies may identify the specific target proteins enabling molecular docking studies and specific refinement of the organo-metal compound structure. Altogether, presented compounds may use some of these alternative modes of action as well, as we see efficient cell death but no cell cycle arrest induction by Ru3/Ru14. Furthermore, the ruthenium(II) core atom might be responsible for this effect because of the lack of anticancer behaviour of the ligand L14 (Supplementary Figure S8). To further confirm that Ru compounds use another mechanism of action, DNA damage analyses were conducted for Ru3 and Ru14 (Figure 8). […]

For data set [8], the system named is all cancer cell lines. Briefly: Mean IC50 (MTT assay) for all cancer cell lines. On the procedure:
as §1
Ovarian cancer cell lines were cultured under standard conditions (5% CO2, 37 °C, 90% humidity) in RPMI medium supplemented with 10% FCS, 100 U/mL penicillin and 100 µg/mL streptomycin (Life Technologies, Dreieich, Germany). […] The proportion of viable cells was quantified by the MTT assay and after background subtraction relative values compared to the mean of medium controls were calculated. […]

Results on 1 substance are retold here after paper PMC9102668, “Highly Cytotoxic Osmium(II) Compounds and Their Ruthenium(II) Analogues Targeting Ovarian Carcinoma Cell Lines and Evading Cisplatin Resistance Mechanisms” (International Journal of Molecular Sciences, 2022).

pIC50: −log10 of the molar value.

For “[(η^6-p-cymene)Ru(1-(3-ethoxyphenyl)-3-(methylthio)-3-thioxo-prop-1-en-1-olate-O,S)] [Ru14]”, the “mean IC50 value on Cisplatin resistant cell lines compared with Cisplatin” value in data set [1] is “lower”. The pIC50 in data set [2] was 5.72; in data set [3] (Cisplatin resistant SKOV3, MTT assay, 48 h incubation), 5.29; in data set [4] (Cisplatin resistant A2780, MTT assay, 48 h incubation) it was 5.54; in data set [5] it was 5.57; in data set [6] it was 5.46. The “RF SKOV3 (resistance factor)” value in data set [3] (SKOV3cis vs SKOV3) turned out to be 1.5. Moreover, the “RF A2780 (resistance factor)” value in data set [4] (A2780cis vs A2780) amounted to 1.5. Besides, in data set [7], the γH2AX-foci induction entry is given as “less γH2AX-foci as Cisplatin”. For the same substance, in data set [8], the “mean IC50 value / cytotoxicity for all cancer cell lines compared with Cisplatin” value was “lower”.

For orientation: pIC50 means the IC50 on a negative log10 scale, so that one unit is a factor of ten.
